The values below are quoted from earlier work in publication PMC3238097 (Journal of the American Chemical Society, 2011).

As to naphthalene-diphenylalanine-glucosamine, the hydrogel formation result is “fails to form hydrogel properly”.
